Data on 14 compounds can be found in patent US20020028938A1, “Prostaglandin endoperoxide H synthase biosynthesis inhibitors” (priority 1997, published 2002).

Series [1] deals with T1, Human Whole Platelet Cyclooxygenase-1 (Homo sapiens, UniProt P23219).
T1 construct: from tissue; host or cells: human blood: isolated platelets (A4) or heparinised whole blood (A9)
Kind of series: Human Whole Platelet Cyclooxygenase-1 assay (HWPX). Format: cell-based. The settings on record: for IC50: read-out: HWPX IC50 (parenthetical value). In outline: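 Washed platelets from healthy-donor ACD blood were pre-incubated with compound for 10 min, then stimulated with calcium ionophore A23187 (8.8 μM final) for 10 min. Reaction stopped with cold 6 mM EDTA; thromboxane in supernatants quantified with a commercial kit.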

Series [2] addresses T2, human amnionic whole cell cyclooxygenase-2 (WISH cells) (Homo sapiens, UniProt P35354).
T2 construct: endogenous in cells; host or cells: human amnionic WISH cells, induced with IL-1beta
T2 sequence (P35354 18-604): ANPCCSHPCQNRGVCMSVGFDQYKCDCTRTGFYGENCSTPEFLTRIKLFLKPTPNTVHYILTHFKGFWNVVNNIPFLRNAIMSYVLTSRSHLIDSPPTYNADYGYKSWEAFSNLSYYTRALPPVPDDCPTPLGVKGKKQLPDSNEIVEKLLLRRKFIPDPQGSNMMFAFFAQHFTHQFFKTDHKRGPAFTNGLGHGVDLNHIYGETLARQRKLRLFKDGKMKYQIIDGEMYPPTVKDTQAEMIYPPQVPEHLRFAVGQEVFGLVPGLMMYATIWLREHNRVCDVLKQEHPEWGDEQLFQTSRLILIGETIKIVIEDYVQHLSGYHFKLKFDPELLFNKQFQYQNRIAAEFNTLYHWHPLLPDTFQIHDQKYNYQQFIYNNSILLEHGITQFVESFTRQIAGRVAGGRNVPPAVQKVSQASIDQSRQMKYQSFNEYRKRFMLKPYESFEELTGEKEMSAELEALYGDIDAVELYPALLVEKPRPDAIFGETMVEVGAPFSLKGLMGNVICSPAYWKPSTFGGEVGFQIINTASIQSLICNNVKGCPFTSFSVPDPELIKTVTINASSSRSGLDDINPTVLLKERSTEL
Briefly: IL-1β induced PGE2 production in WISH cells. Format: cell-based. The conditions noted are these: read-out: Wish IC50 (parenthetical value). In outline:
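Confluent (80%) WISH cells were stimulated with 5 ng/ml IL-1β in serum-free Neuman-Tytell medium, with or without test compound in DMSO (0.01% v/v). PGE2 in the culture medium was measured by EIA against standards prepared in the same medium, read by optical density.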

In series [3] the test system is air pouch prostaglandin biosynthesis (Cox-2). Kind of series: Carrageenan induced air pouch prostaglandin biosynthesis model (CAP). The settings on record: for CAP % Inhib. @ 3 mpk / inhibition in vivo at 3 mg/kg: rat, 3 mpk; for inhibition in vivo at 3 mg/kg: 4 h, read-out: CAP % Inhib. @ 3 mpk; for ED50: Rattus norvegicus. The class given is in vivo, rat. Here is the method: To compare the mean responses of the treatment groups, analysis of variance was applied. Percent inhibition values were determined by comparing the individual treatment mean values to the mean of the control group. Linear regression was used to estimate IC50's/ED50's in appropriate assays.
Carrageenan induced air pouch prostaglandin biosynthesis model (CAP) Air pouches are formed in the backs of male Sprague Dawley rats by injecting 20 mL of sterile air on day 0. Three days later the pouch was reinflated with an additional 10 mL of sterile air. On day 7, 1 mL of saline containing 0.2 % lambda carrageenan (Sigma Chemical Co.) is injected into the pouch to induce the inflammatory reaction that is characterized by the release of prostaglandins. Test compounds are dosed at 0.1 to 10 mg/kg 30 minutes prior to carrageenan. Four hours after the carrageenan injection the pouch is lavaged and levels of prostaglandins are determined by enzyme immuno-assay using commercially available kits. […] Values for Cox-2 inhibition that are parenthetical indicate ED50 values.

Series [4] concerns the target T3, recombinant human Cox-1 (r-hu Cox1) (Homo sapiens, UniProt P23219).
T3 construct: made in house; host or cells: baculovirus/Sf9 insect cells (microsomes)
Briefly: Recombinant human PGHS-1 enzyme assay (RHUCX1). The conditions noted are these: read-out: RHUCX1 % Inh. at Dose. The class given is biochemical. The gist of the method:
(§1)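 Prostaglandin biosynthesis was measured as PGE2 output, read by enzyme immunoassay after a 2.5-minute room-temperature reaction stopped with HCl and neutralized with NaOH.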

In series [5] the target is T4, recombinant human Cox-2 (r-hu Cox-2) (Homo sapiens, UniProt P35354).
T4 construct: made in house; host or cells: baculovirus/Sf9 insect cells (microsomes)
T4 sequence (P35354 18-604): T2 sequence (P35354 18-604)
Briefly: Recombinant human PGHS-2 enzyme assay (RHUCX2). The settings on record: for IC50: read-out: RHUCX2 IC50 (parenthetical value). The class given is biochemical. The gist of the method: as §1

Where [6] appears, read: read-out: RHUCX2 % Inh. at Dose.

T3 sequence (P23219 24-599): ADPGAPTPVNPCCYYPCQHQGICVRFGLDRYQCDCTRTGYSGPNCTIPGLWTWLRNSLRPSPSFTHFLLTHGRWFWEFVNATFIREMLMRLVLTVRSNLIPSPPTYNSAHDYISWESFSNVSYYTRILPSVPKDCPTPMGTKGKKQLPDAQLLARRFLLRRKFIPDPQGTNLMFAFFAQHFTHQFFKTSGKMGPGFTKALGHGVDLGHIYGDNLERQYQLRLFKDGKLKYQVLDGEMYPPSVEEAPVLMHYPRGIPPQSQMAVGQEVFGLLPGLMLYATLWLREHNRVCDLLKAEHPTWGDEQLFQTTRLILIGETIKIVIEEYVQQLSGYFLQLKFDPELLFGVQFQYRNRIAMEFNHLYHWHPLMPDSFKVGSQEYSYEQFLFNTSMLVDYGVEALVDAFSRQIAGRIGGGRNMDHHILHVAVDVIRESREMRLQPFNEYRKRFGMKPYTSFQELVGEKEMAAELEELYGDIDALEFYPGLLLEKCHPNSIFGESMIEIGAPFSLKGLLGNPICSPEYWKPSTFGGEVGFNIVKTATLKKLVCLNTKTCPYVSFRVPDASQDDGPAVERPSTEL
T1 sequence (P23219 24-599): as above

With “2-(3-Methyl-2-butenyl)-4-(4-fluorophenyl)-5-[3-fluoro-4-(aminosulfonyl)phenyl]-3(2H)-pyridazinone [Example 123]”, the results for the “HWPX % Inhib. at Dose (μM)” value in series [1] (0.1 μM) and in series [1] (1 μM) were 29 @ .1% and 90 @ 1%, respectively. Further, the IC50 in series [2] came to 1 nM. In series [3], the “CAP % Inhib. @ 3 mpk” value is listed as 23%.

On to “2-(4-Fluorophenyl)-4-(4-fluorophenoxy)-5-[4-(aminosulfonyl)phenyl]-3(2H)-pyridazinone [Example 385]”, for which the concentration for half-maximal inhibition (IC50) amounted to 2180 nM in series [1] and 23 nM in series [2]. Moreover, in series [3], the “CAP % Inhib. @ 3 mpk” value was found to be 65%.

In the case of `CS(=O)(=O)c1ccc(-c2cnn(-c3ccc(F)c(F)c3)c(=O)c2-c2ccc(Cl)cc2)cc1` [Example 106, 2-(3,4-Difluorophenyl)-4-(4-chlorophenyl)-5-[4-(methylsulfonyl)phenyl]-3(2H)-pyridazinone], the melting point was in the range of 187 to 188 °C. Further, the inhibition at 200 µM in series [4] (200 μM) was determined as 19%. Moreover, the IC50 in series [5] is 135 nM. In addition, the half-maximal inhibitory concentration (IC50) in series [1] came to 17500 nM. For the same compound, in series [2], the IC50 is 30 nM. The inhibition in vivo at 3 mg/kg in series [3] is 47%.

The compound `NS(=O)(=O)c1ccc(-c2cnn(CC=C(F)F)c(=O)c2-c2ccc(F)cc2)cc1` [Example 143, 2-(3,3-Difluoro-2-propenyl)-4-(4-fluorophenyl)-5-[4-(aminosulfonyl)phenyl]-3(2H)-pyridazinone] had a melting point of 191 to 194 °C. Also, in series [4], the inhibition at 10 µM was determined as 43% and the inhibition at 100 µM was determined as 62%. For the same compound, in series [5], the IC50 was 76 nM. The IC50 in series [2] amounted to 7 nM. Also, the inhibition in vivo at 3 mg/kg in series [3] is 59%.

Compound `NS(=O)(=O)c1ccc(-c2cnn(Cc3ccc(F)c(F)c3F)c(=O)c2-c2ccc(F)cc2)cc1` [Example 153, 2-(2,3,4-Trifluorobenzyl)-4-(4-fluorophenyl)-5-[4-(aminosulfonyl)phenyl]-3(2H)-pyridazinone] registered a melting point of 218 to 220 °C. For the same compound, in series [4], the inhibition at 10 µM was 35% and the inhibition at 100 µM is 54%. Also, in series [5], the 50% inhibitory concentration (IC50) worked out at 62 nM. Further, the half-inhibitory concentration (IC50) in series [1] amounted to 2950 nM. Further, the IC50 in series [2] was determined as 46 nM. The inhibition in vivo at 3 mg/kg in series [3] stood at 51%.

For `Cc1cc(-c2c(-c3ccc(S(C)(=O)=O)cc3)cnn(-c3ccc(F)cc3)c2=O)ccc1F` [Example 245, 2-(4-Fluorophenyl)-4-(4-fluoro-3-methylphenyl)-5-[4-(methylsulfonyl)phenyl]-3(2H)-pyridazinone], the melting point lay in the range of 245 to 247 °C. In addition, the inhibition at 100 µM in series [4] was determined as 9%. The concentration for half-maximal inhibition (IC50) in series [5] came to 1380 nM. Further, the IC50 in series [2] came to 46 nM. Besides, the inhibition in vivo at 3 mg/kg in series [3] turned out to be 47%.

Consider `CS(=O)(=O)c1ccc(-c2cnn(-c3ccc(F)c(Cl)c3)c(=O)c2Cc2ccccc2)cc1` [Example 248, 2-(3-Chloro-4-fluorophenyl)-4-benzyl-5-[4-(methylsulfonyl)phenyl]-3(2H)-pyridazinone], for which the inhibition at 100 µM in series [4] was determined as 13%. The concentration for half-maximal inhibition (IC50) in series [5] was 80 nM; in series [2] it was 5 nM. Further, the inhibition at 10 µM in series [1] (10 μM, read-out: HWPX % Inhib. at Dose) turned out to be 17%. Moreover, in series [1] (30 μM, read-out: HWPX % Inhib. at Dose), the inhibition at 30 µM was 82%. In addition, the inhibition in vivo at 3 mg/kg in series [3] came to 49%.

`CC(C)CCc1c(-c2ccc(S(C)(=O)=O)cc2)cnn(-c2ccc(F)c(F)c2)c1=O` [Example 256]: the melting point fell in the range of 55 to 58 °C. Besides, the inhibition at 100 µM in series [4] was 0%. Further, in series [5], the IC50 worked out at 134 nM. Besides, the IC50 in series [1] is 4700 nM. In addition, in series [2], the IC50 came out at 28 nM. Further, in series [3], the inhibition in vivo at 3 mg/kg turned out to be 47%.

On to `CC(C)CCOc1c(-c2ccc(S(C)(=O)=O)cc2)cnn(C(C)(C)C)c1=O` [Example 330, 2-(tert-Butyl)-4-(3-methylbutoxy)-5-[4-(methylsulfonyl)phenyl]-3(2H)-pyridazinone], for which the inhibition at 100 µM in series [4] was found to be 15%. In series [5] (setting [6]), the inhibition at 0.01 µM is 5% and the inhibition at 1 µM was determined as 85%. Besides, the inhibition at 0.03 µM in series [5] (0.03 μM, read-out: RHUCX2 % Inh. at Dose) was 72%. For the same compound, the IC50 in series [1] is 16700 nM. Moreover, the IC50 in series [2] stood at 5 nM. In series [3], the inhibition in vivo at 3 mg/kg is 4.5%.

In turn, `CC(C)COc1c(-c2ccc(S(C)(=O)=O)cc2)cnn(-c2cccc(Cl)c2)c1=O` [Example 335, 2-(3-Chlorophenyl)-4-(2-methylpropoxy)-5-[4-(methylsulfonyl)phenyl]-3(2H)-pyridazinone] gave a melting point of 166 to 169 °C. Further, in series [4], the inhibition at 100 µM turned out to be 5%. Besides, the IC50 in series [5] came to 1 nM. Besides, in series [2], the IC50 amounted to 23 nM. In series [3], the inhibition in vivo at 3 mg/kg is 45%.

The compound `CC(C)(C)COc1c(-c2ccc(S(C)(=O)=O)cc2)cnn(-c2ccc(F)c(F)c2)c1=O` [Example 349] gave a melting point of 126 to 128 °C. Also, the inhibition at 100 µM in series [4] turned out to be 0%. The IC50 in series [5] was 86 nM. For the same compound, the inhibition at 100 µM in series [1] (100 μM, read-out: HWPX % Inhib. at Dose) amounted to 34%. Moreover, the concentration for half-maximal inhibition (IC50) in series [2] amounted to 41 nM. Further, in series [3], the inhibition in vivo at 3 mg/kg came out at 63%.

`CC(C)=CCCOc1c(-c2ccc(S(C)(=O)=O)cc2)cnn(-c2ccc(F)c(F)c2)c1=O` [Example 352, 2-(3,4-Difluorophenyl)-4-(4-methyl-3-penten-1-yloxy)-5-[4-(methylsulfonyl)phenyl]-5-3(2H)-pyridazinone] registered a melting point of 88 to 90 °C. Moreover, the inhibition at 100 µM in series [4] came out at 0%. For the same compound, the IC50 in series [5] is 154 nM. Further, in series [1], the IC50 was 5500 nM. Further, in series [3], the inhibition in vivo at 3 mg/kg amounted to 89% and the ED50 is 5 mg/kg.

In turn, `CC(C)CCc1c(-c2ccc(S(C)(=O)=O)cc2)cnn(-c2cccc(Cl)c2)c1=O` [Example 366, 2-(3-Chloropenyl)-4-(3-methylbutyl)-5-[4-(methysulfonyl)phenyl]-3(2H)-pydazinone] displayed a melting point of 60 to 65 °C. Also, in series [4], the inhibition at 100 µM was 0%. For the same compound, in series [5], the IC50 was 30 nM. The IC50 in series [1] was 1620 nM. Also, the IC50 in series [2] came out at 2 nM. For the same compound, in series [3], the inhibition in vivo at 3 mg/kg was 63% and the 50% effective dose (ED50) was found to be 1.5 mg/kg.

`CC(C)CCOc1c(-c2ccc(S(N)(=O)=O)cc2)cnn(-c2cccc(Cl)c2)c1=O` [Example 394, 2-(3-Chlorophenyl)-4-(3-methylbutoxy)-5-[4-(aminosulfonyl)phenyl]-3(2H)-pyridazinone] gave a melting point of 137 to 139 °C. In series [4], the inhibition at 10 µM came to 38% and the inhibition at 100 µM was 86%. Also, in series [5] (setting [6]), the inhibition at 0.01 µM was 20% and the inhibition at 1 µM stood at 94%. Further, the inhibition at 0.1 µM in series [5] (0.1 μM, read-out: RHUCX2 % Inh. at Dose) worked out at 64%. Besides, the half-inhibitory concentration (IC50) in series [2] came to 19 nM. Moreover, the inhibition in vivo at 3 mg/kg in series [3] turned out to be 70%.
